From paper PMC8283659 (ACS chemical neuroscience, 2020)
Read-outs that look alike come from different tables or passages of the source.

Experiments:
[1] = molecular target: DAT (Rattus norvegicus, UniProt P23977); assay: DAT radioligand binding assay; settings: for pKi ± S.E.M. DAT [3H]WIN 35,428: mean ± S.E.M., 3 independent experiments
[2] = molecular target: SERT (Rattus norvegicus, UniProt P31652); assay: SERT radioligand binding assay; settings: for pKi ± S.E.M. SERT [3H]Citalopram: rat brain membranes (stem in methods), mean ± S.E.M., 3 independent experiments
[3] = molecular target: DAT; settings: read-out: DAT Ki; cited from earlier work
[4] = molecular target: NET (Rattus norvegicus, UniProt Q63380); assay: NET radioligand binding assay
[5] = molecular target: EGFP-hDAT (Homo sapiens, UniProt Q01959); assay: TIRF microscopy of surface labeling of EGFP-hDAT-expressing CAD cells; type: cell-based; settings: 10 nM ligand, 10 min, rt; fixed cells
[6] = molecular target: human DAT (hDAT) (Homo sapiens, UniProt Q01959); assay: [3H]dopamine uptake inhibition in CAD cells transiently expressing hDAT; type: cell-based
[7] = read-out: Ki DAT [3H]WIN 35,428, rat striatum membranes, value in parentheses
[8] = IC50 DAT [3H]DA, value in parentheses
[9] = pIC50 ± S.E.M. DAT [3H]DA, 20 nM [3H]DA, 5 min, rt

SERT, sequence (P31652 whole entry): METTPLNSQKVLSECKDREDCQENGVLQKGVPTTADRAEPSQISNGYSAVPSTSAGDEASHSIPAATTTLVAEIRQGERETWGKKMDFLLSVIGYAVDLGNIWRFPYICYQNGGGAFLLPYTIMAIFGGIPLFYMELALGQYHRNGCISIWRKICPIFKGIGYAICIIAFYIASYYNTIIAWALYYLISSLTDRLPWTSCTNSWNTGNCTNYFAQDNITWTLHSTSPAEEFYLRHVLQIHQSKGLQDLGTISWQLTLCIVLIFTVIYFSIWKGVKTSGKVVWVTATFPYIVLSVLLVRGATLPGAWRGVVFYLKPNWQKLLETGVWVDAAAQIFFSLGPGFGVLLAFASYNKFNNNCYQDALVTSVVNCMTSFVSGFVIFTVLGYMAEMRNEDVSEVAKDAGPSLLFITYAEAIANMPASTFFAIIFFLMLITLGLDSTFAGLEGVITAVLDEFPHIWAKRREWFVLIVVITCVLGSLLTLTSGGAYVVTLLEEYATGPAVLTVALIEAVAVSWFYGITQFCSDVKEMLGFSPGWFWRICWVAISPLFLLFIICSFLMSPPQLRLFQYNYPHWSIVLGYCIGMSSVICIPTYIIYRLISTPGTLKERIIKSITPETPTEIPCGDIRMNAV
NET, sequence (Q63380 1-617): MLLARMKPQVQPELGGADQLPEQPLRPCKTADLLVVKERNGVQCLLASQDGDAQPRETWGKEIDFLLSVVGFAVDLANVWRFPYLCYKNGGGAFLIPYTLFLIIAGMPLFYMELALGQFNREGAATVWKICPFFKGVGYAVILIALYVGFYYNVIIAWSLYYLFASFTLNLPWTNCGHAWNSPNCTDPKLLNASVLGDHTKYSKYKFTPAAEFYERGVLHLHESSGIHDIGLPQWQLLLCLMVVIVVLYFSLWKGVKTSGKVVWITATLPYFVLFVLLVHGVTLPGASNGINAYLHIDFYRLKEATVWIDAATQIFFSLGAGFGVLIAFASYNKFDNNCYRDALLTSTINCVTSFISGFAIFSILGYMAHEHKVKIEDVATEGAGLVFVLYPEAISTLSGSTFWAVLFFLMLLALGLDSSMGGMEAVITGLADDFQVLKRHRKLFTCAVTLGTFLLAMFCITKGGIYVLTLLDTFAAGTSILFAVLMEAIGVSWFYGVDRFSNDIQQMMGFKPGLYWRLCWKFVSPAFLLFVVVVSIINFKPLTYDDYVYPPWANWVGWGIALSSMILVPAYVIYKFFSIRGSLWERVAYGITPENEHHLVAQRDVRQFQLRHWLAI
human DAT (hDAT), sequence (Q01959 whole entry): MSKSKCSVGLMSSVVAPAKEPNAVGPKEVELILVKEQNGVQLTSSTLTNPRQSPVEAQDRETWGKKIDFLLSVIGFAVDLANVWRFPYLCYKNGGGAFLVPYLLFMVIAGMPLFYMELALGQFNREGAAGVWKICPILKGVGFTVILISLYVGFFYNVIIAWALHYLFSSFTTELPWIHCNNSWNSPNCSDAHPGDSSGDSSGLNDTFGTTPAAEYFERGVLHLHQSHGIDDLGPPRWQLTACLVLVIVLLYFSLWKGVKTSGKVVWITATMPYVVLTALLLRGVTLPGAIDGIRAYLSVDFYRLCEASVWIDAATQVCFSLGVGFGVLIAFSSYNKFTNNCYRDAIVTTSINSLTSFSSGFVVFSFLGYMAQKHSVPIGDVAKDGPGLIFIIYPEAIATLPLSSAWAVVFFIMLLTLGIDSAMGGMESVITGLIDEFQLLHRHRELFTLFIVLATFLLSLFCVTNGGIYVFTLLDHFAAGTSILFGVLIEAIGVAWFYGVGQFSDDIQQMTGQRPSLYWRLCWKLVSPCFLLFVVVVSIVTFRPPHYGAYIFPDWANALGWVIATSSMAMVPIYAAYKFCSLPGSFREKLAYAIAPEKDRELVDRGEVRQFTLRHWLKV
EGFP-hDAT, sequence (Q01959 whole entry): as above
DAT (Rattus norvegicus, UniProt P23977), sequence (P23977 whole entry): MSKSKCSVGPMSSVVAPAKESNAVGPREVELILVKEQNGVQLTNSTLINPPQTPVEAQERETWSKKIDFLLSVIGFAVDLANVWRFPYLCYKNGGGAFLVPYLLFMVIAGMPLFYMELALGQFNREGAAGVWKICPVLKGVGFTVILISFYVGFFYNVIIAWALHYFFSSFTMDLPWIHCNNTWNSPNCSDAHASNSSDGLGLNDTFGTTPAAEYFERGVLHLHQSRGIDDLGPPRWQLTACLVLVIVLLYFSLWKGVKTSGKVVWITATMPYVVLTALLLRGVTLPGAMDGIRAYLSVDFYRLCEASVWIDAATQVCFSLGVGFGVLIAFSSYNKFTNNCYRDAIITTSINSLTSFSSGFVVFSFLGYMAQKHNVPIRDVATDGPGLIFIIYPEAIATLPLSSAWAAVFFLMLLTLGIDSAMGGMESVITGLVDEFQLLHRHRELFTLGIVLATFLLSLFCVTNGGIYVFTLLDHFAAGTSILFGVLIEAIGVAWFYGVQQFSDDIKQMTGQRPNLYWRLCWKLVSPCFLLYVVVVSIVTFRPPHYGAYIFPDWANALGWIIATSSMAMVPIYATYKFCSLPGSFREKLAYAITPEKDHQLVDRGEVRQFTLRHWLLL

Compound | pKi ± S.E.M. DAT [3H]WIN 35,428 ([1]; rat striatum membranes) | Ki [1, 7] | pKi ± S.E.M. SERT [3H]Citalopram [2] | Ki [3] | Ki [4] | Ki [1] | Ki [2] | surface labeling of EGFP-hDAT-expressing CAD cells, TIRF microscopy (in words) [5] | IC50 [6, 8] | IC50 [6, 9] | pIC50 ± S.E.M. DAT [3H]DA ([6]; 20 nM [3H]DA, 5 min, rt)
COC(=O)[C@H]1[C@@H](c2ccc(Cl)c(Cl)c2)C[C@@H]2CC[C@H]1N2C [Compound 1, reference compound] | 9.10 ± 0.23 | 0.8 nM | 7.99 ± 0.20 | – | – | – | – | – | – | – | –
CCN(CC)c1ccc2c(-c3ccc(S(=O)(=O)NCCCCCC(=O)NCCN4C5CCC4[C@@H](C(=O)OC)[C@@H](c4ccc(Cl)c(Cl)c4)C5)cc3S(=O)(=O)[O-])c3ccc(=[N+](CC)CC)cc-3oc2c1 (some centres unmarked) [Compound 2, reference compound] | 7.79 ± 0.09 | 16 nM | 7.80 ± 0.08 | 18 nM | – | – | – | – | – | – | –
COC(=O)[C@H]1[C@@H](c2ccc(Cl)c(Cl)c2)C[C@@H]2CC[C@H]1N2CCOCCOCCNC(=O)c1ccc(C(=O)[O-])c(-c2c3ccc(=[N+]4CCC4)cc-3oc3cc(N4CCC4)ccc23)c1 [Compound 3, 2-(3-(Azetidin-1-ium-1-ylidene)-6-(azetidin-1-yl)-3H-xanthen-9-yl)-4-((2-(2-(2-((1R,2S,3S,5S)-3-(3,4-dichlorophenyl)-2-(methoxycarbonyl)-8-azabicyclo[3.2.1]octan-8-yl)ethoxy)ethoxy)ethyl)carbamoyl)benzoate] | – | – | – | – | 225 nM | 6.03 nM | 41.7 nM | surface labeling was observed | 28 nM | 28.2 nM | –
COC(=O)[C@H]1[C@@H](c2ccc(Cl)c(Cl)c2)C[C@@H]2CC[C@H]1N2CCOCCOCCOCCOCCOCCNC(=O)c1ccc2c(c1)C1(OC2=O)c2ccc(N3CCC3)cc2[Si](C)(C)c2cc(N3CCC3)ccc21 [Compound 4, Methyl (1R,2S,3S,5S)-8-(1-(3,7-di(azetidin-1-yl)-5,5-dimethyl-3’-oxo-3’H,5H-spiro[dibenzo[b,e]siline-10,1’-isobenzofuran]-6’-yl)-1-oxo-5,8,11,14,17-pentaoxa-2-azanonadecan-19-yl)-3-(3,4-dichlorophenyl)-8-azabicyclo[3.2.1]octane-2-carboxylate] | 7.55 ± 0.03 | 28 nM | 7.37 ± 0.05 | – | – | – | – | surface labeling was observed | – | – | 6.99 ± 0.15
COC(=O)[C@H]1[C@@H](c2ccc(Cl)c(Cl)c2)C[C@@H]2CC[C@H]1N2CCOCCOCCNC(=O)c1ccc2c(c1)C1(OC2=O)c2ccc(N3CCC3)cc2[Si](C)(C)c2cc(N3CCC3)ccc21 [Compound 10, Methyl (1R,2S,3S,5S)-8-(2-(2-(2-(3,7-di(azetidin-1-yl)-5,5-dimethyl-3’-oxo-3’H,5H-spiro[dibenzo[b,e]siline-10,1’-isobenzofuran]-6’-carboxamido)ethoxy)ethoxy)ethyl)-3-(3,4-dichlorophenyl)-8-azabicyclo[3.2.1]octane-2-carboxylate] | – | – | – | – | 468 nM | 112 nM | 153 nM | – | 1150 nM | 1150 nM | –
COC(=O)[C@H]1[C@@H](c2ccc(Cl)c(Cl)c2)C[C@@H]2CC[C@H]1N2CCN1CCN(CCCCNC(=O)c2ccc3c(c2)C2(OC3=O)c3ccc(N4CCC4)cc3[Si](C)(C)c3cc(N4CCC4)ccc32)CC1 [Compound 14, Methyl (1R,2S,3S,5S)-8-(2-(4-(4-(3,7-di(azetidin-1-yl)-5,5-dimethyl-3’-oxo-3’H,5H-spiro[dibenzo[b,e]siline-10,1’-isobenzofuran]-6’-carboxamido)butyl)piperazin-1-yl)ethyl)-3-(3,4-dichlorophenyl)-8-azabicyclo[3.2.1]octane-2-carboxylate] | – | – | – | – | 1200 nM | 38 nM | 38 nM | the labeling was very punctate | 160 nM | 158 nM | –
